Assay results from patent publication US20040213826A1, “Medical devices and methods for inhibiting proliferation of smooth muscle cells” (priority 2003, published 2004).
pIC50: −log10 of the molar value. Where two headings read alike, the source gives them in different places.

Tests used:
[1] = test system: embryoid bodies; conditions: cited from earlier work
[2] = test system: vascular-endothelial-growth-factor-stimulated human umbilical endothelial cells; conditions: cited from earlier work
[3] = test system: porcine coronary arteries; conditions: 1 mM; cited from earlier work
[4] = test system: rat aortic smooth muscle cells (RASM cells); test: RASM cell proliferation assay (Promega CellTiter 96 AQueous One Solution); assay type: cell-based; conditions: for inhibition of RASM cell proliferation (in words) / IC50, inhibition of SMC proliferation: RASM cells, 48 h exposure; for IC50, inhibition of SMC proliferation: light absorption
Method: (§1) Low-passage rat aortic smooth muscle cells (RASM cells) from primary isolates and human aortic smooth muscle cells (HASM cells) were obtained and grown according to the suppliers' instructions. RASM cells were cultured in a medium comprising DMEM+10% FBS+100 U/ml penicillin and […], which was changed every 48 h. Micro-cultures of 5000 cells of each of the RASM and HASM were established in quadruplicate, placedin flat-bottom 96-well micro-titer plates, and exposed to various concentrations of the trichostatin-A, oxamflatin, and rapamycin. Trichostatin-A and oxamflatin were dissolved in dimethyl sulfoxide (DMSO) at various concentrations, and stored at −20° C. prior to use; rapamycin was dissolved in methanol (100 nM). After 48 h following initial exposure, the cultures were pulsed with […] of a cell-proliferation assay solution (Promega CellTiter 96 AQueous One Solution, Catalog G3580), and incubated for 1 h. The cultures' light absorbance was then measured on a BioRad Benchmark micro-plate reader, which was set to the range Ab 490 nm-Ab 655 nm. Light absorbed by the blank was accounted for in the tests. All experiments were repeated at least twice. Cell viability was determined using trypan blue staining, after incubating RASM cells with 100 ng/ml of rapamycin and trichostatin-A for 48 h.
Referring to FIG. 1, micro-cultures consisting of RASM cells were plated into a 96-well dish, and exposed as follows: a number of the micro-cultures were sham exposed, a number were exposed to rapamycin (5, 10, and 50 ng/ml, respectively), and a number were exposed to trichostatin-A ([…], respectively). The RASM cells were exposed for 48 h, prior to assessing cell proliferation.
Referring to FIG. 2, micro-cultures of RASM cells were plated into a 96-well dish, and exposed as follows: a number of the micro-cultures were sham exposed, and a number were exposed to oxamflatin (5, 10, 50, 100, 200 and 500 ng/ml, respectively)., The RASM cells were exposed for 48 h before assessing cell proliferation.

[5] = test system: primary cultured SMCs from rat thoracic aorta; conditions: 1 μg/ml; cited from earlier work
[6] = test system: RASM cells; test: Cell viability by trypan blue staining; assay type: cell-based, rat; conditions: 100 ng/ml, 48 h
Method: as §1

[7] = test system: IL-2 expression in Jurkat cells; conditions: read-out: IC50, inhibition of IL-2 expression; cited from earlier work
[8] = cited from earlier work

## O=C(CCCCCCC(=O)Nc1ccccc1)NO [SAHA, suberoylanilide hydroxamic acid]
[1]; 400 nM
  angiogenesis in embryoid bodies: inhibit angiogenesis
[2]; concentration not given
  invasion of type I collagen gel and formation of capillary like structures: prevent

## CC(/C=C/C(=O)NO)=C\[C@@H](C)C(=O)c1ccc(N(C)C)cc1 [trichostatin-A]
[3]
  NO-dependent relaxation of porcine coronary arteries: attenuated
[4]
  inhibition of RASM cell proliferation (in words): significant inhibition of SMC proliferation
  IC50, inhibition of SMC proliferation: ~0.02 µg/mL
[4]; equal concentrations of 50 ng/ml, 48 h
  inhibition of RASM cell proliferation compared with rapamycin: greater than that exhibited by rapamycin
[5]
  PDGF-induced competence of primary cultured SMCs: inhibited
[6]
  cell viability, trypan blue exclusion, versus control cells: no significant difference
[1]; 10 nM
  angiogenesis in embryoid bodies: inhibit angiogenesis
[2]; 400 nM
  invasion of type I collagen gel and formation of capillary like structures: prevent
[7]
  pIC50: 7.14
[8]
  solubility: soluble in DMSO and ethanol

## oxamflatin
[4]
  inhibition of RASM cell proliferation (in words): inhibited RASM cell proliferation
  IC50, inhibition of SMC proliferation: ~0.075 µg/mL
